The source of these data is ChEMBL document CHEMBL1697692, “Developing structure-activity relationships for the prediction of hepatotoxicity” (Chem Res Toxicol, 2010).

For this data set, the system named is Hepatotoxicity. Briefly: Literature-mined public compounds from Greene et al multi-species hepatotoxicity modelling dataset.

Take `CN1c2ccccc2C(NCCCCCCC(=O)O)c2ccc(Cl)cc2S1(=O)=O` (stereo not drawn) [TIANEPTINE]: the Hepatotoxicity result is given as “HH: Evidence of human hepatotoxicity”.
Turning to `C[C@H]1C(=O)O[C@@H]2CCN3CC=C(COC(=O)[C@](C)(O)[C@]1(C)O)[C@H]23` [MONOCROTALINE], the Hepatotoxicity result is “AH: Evidence for animal hepatotoxicity but not tested in humans”.
As to `Cl[C@H]1[C@H](Cl)[C@@H](Cl)[C@@H](Cl)[C@H](Cl)[C@H]1Cl` (stereo in doubt; form 2) [LINDANE], the Hepatotoxicity entry is “HH: Evidence of human hepatotoxicity”.
Then `CCCC(C)(F)F` [2,2-DIFLUOROPENTANE], with “AH: Evidence for animal hepatotoxicity but not tested in humans”; and `C[C@H](O)C(=O)Nc1c(I)c(C(=O)NC(CO)CO)c(I)c(C(=O)NC(CO)CO)c1I` [IOPAMIDOL], with “HH: Evidence of human hepatotoxicity”; and `Cc1cccc(Nc2ccccc2C(=O)O)c1C` [MEFENAMIC ACID], with “HH: Evidence of human hepatotoxicity”.
Then `CCN(CC)CCOc1ccc(/C(=C(/Cl)c2ccccc2)c2ccccc2)cc1.O=C(O)CC(O)(CC(=O)O)C(=O)O` [ENCLOMIPHENE CITRATE], with “HH: Evidence of human hepatotoxicity”.
Then `Cl.Nc1ccc(/N=N/c2ccccc2)c(N)n1` [PHENAZOPYRIDINE HYDROCHLORIDE], with “HH: Evidence of human hepatotoxicity”; and `CCn1cc(C(=O)O)c(=O)c2ccc(C)nc21` [NALIDIXIC ACID], with “HH: Evidence of human hepatotoxicity”; and `CC(C)NCC(O)COc1ccc(CC(N)=O)cc1` (stereo not drawn) [ATENOLOL], with “NE: No evidence of hepatotoxicity in any species”.
On to `C[n+]1ccc(-c2cc[n+](C)cc2)cc1`, for which the Hepatotoxicity entry is “AH: Evidence for animal hepatotoxicity but not tested in humans”.
Then `CC(C)N(CCC(C(N)=O)(c1ccccc1)c1ccccn1)C(C)C.O=P(O)(O)O` (stereo not drawn) [DISOPYRAMIDE PHOSPHATE], with “HH: Evidence of human hepatotoxicity”; and `[N-]=[N+]=CC(=O)OC[C@H](N)C(=O)O` [AZASERINE], with “AH: Evidence for animal hepatotoxicity but not tested in humans”.
Then `CN/C(=N/CCSCc1nc[nH]c1C)NC#N` [CIMETIDINE], with “WE: Weak evidence (<10 case reports) of human hepatotoxicity”.
Then `CCCC[C@@H](CC)COC(=O)c1ccccc1C(=O)OC[C@@H](CC)CCCC` [BIS(2-ETHYLHEXYL)PHTHALATE], with “AH: Evidence for animal hepatotoxicity but not tested in humans”.
With `Oc1c(Cl)cc(Cl)cc1Sc1cc(Cl)cc(Cl)c1O` [BITHIONOL], the Hepatotoxicity entry was “HH: Evidence of human hepatotoxicity”.
Then `CC1(C)[C@@H](OC(=O)CCC(=O)[O-])CC[C@]2(C)[C@H]3C(=O)C=C4[C@@H]5C[C@@](C)(C(=O)[O-])CC[C@]5(C)CC[C@@]4(C)[C@]3(C)CC[C@@H]12.[Na+].[Na+]` [CARBENOXOLONE SODIUM], with “NE: No evidence of hepatotoxicity in any species”.
Then `CC(C)NCC(O)COc1cccc2[nH]ccc12` (stereo not drawn) [PINDOLOL], with “NE: No evidence of hepatotoxicity in any species”; and `CC1(C)S[C@@H]2[C@H](NC(=O)Cc3ccccc3)C(=O)N2[C@H]1C(=O)[O-].[Na+]` [PENICILLIN G SODIUM], with “HH: Evidence of human hepatotoxicity”; and `CN(C)C(=O)C(CCN1CCC(O)(c2ccc(Cl)cc2)CC1)(c1ccccc1)c1ccccc1.Cl` [LOPERAMIDE HYDROCHLORIDE], with “NE: No evidence of hepatotoxicity in any species”.
In the case of `CC(C)NCC(O)c1cc(O)cc(O)c1.CC(C)NCC(O)c1cc(O)cc(O)c1.O=S(=O)(O)O` (stereo not drawn) [METAPROTERENOL SULFATE], the Hepatotoxicity entry is recorded as “HH: Evidence of human hepatotoxicity”.
Then `NC(=O)c1cnccn1` [PYRAZINAMIDE], with “HH: Evidence of human hepatotoxicity”; and `CC(C(=O)O)c1ccc(N2CC=CC2)c(Cl)c1` (stereo not drawn) [PIRPROFEN], with “HH: Evidence of human hepatotoxicity”; and `CC(C(=O)O)c1cccc(C(=O)c2ccccc2)c1` (stereo not drawn) [KETOPROFEN], with “NE: No evidence of hepatotoxicity in any species”.
Then `CC1(C)S[C@@H]2[C@H](NC(=O)[C@H](NC(=O)N3CCN(S(C)(=O)=O)C3=O)c3ccccc3)C(=O)N2[C@H]1C(=O)[O-].[Na+]` [MEZLOCILLIN SODIUM], with “HH: Evidence of human hepatotoxicity”.
Consider `C[C@@](Cc1ccc(O)c(O)c1)(NN)C(=O)O.O` [CARBIDOPA], for which the Hepatotoxicity entry is listed as “NE: No evidence of hepatotoxicity in any species”.
Then `CC1(C)C(C=C(Cl)Cl)C1C(=O)OCc1cccc(Oc2ccccc2)c1` (stereo not drawn) [PERMETHRIN], with “NE: No evidence of hepatotoxicity in any species”; and `C[C@H](CCC(=O)O)[C@H]1CC[C@H]2[C@@H]3[C@@H](O)C[C@@H]4C[C@H](O)CC[C@]4(C)[C@H]3CC[C@]12C` (stereo in doubt; form 2) [URSODIOL], with “WE: Weak evidence (<10 case reports) of human hepatotoxicity”; and `CN[C@@H]1[C@H](O)[C@H](NC)[C@H]2O[C@@]3(O)C(=O)C[C@@H](C)O[C@H]3O[C@@H]2[C@H]1O.Cl`, with “HH: Evidence of human hepatotoxicity”.
Then `NC(CO)(CO)CO` [TROMETHAMINE], with “NE: No evidence of hepatotoxicity in any species”.
Take `Oc1ccccc1Br`: the Hepatotoxicity result is on record as “AH: Evidence for animal hepatotoxicity but not tested in humans”.
Then `Clc1ccc(CSC(Cn2ccnc2)c2ccc(Cl)cc2Cl)cc1.O=[N+]([O-])O` (stereo not drawn) [SULCONAZOLE NITRATE], with “NE: No evidence of hepatotoxicity in any species”; and `Cl.NCCNCCNCCN`, with “HH: Evidence of human hepatotoxicity”.
Then `Nc1ccc(C(=O)[O-])cc1.[K+]` [AMINOBENZOATE POTASSIUM], with “NE: No evidence of hepatotoxicity in any species”; and `Oc1ncc(N(CCCl)CCCl)c(O)n1` [URACIL MUSTARD], with “HH: Evidence of human hepatotoxicity”; and `CCN(CC)C(=O)N1CCN(C)CC1` [DIETHYLCARBAMAZINE], with “HH: Evidence of human hepatotoxicity”.
Then `O=C(O)CCCC[C@@H]1SC[C@@H]2NC(=O)N[C@@H]21` [BIOTIN], with “NE: No evidence of hepatotoxicity in any species”.
For `CCC1(c2ccccc2)C(=O)NCNC1=O` [PRIMIDONE], the Hepatotoxicity result was “NE: No evidence of hepatotoxicity in any species”.
Regarding `O=c1[nH]c(=O)n([C@H]2C[C@H](O)[C@@H](CO)O2)cc1I` [IDOXURIDINE], the Hepatotoxicity result was “HH: Evidence of human hepatotoxicity”.
Then `[Cl-].[Na+]` [SODIUM CHLORIDE], with “NE: No evidence of hepatotoxicity in any species”.
Then `O=C1O[C@H]([C@@H](O)CO)C(O)=C1O` [ASCORBIC ACID], with “NE: No evidence of hepatotoxicity in any species”; and `COCC(=O)O` [METHOXYACETIC ACID], with “AH: Evidence for animal hepatotoxicity but not tested in humans”; and `[H]/N=C(/N)N[C@H]1[C@H](O)[C@@H](O)[C@H](O[C@@H]2O[C@@H](C)[C@](O)(C=O)[C@H]2O[C@@H]2O[C@@H](CO)[C@H](O)[C@@H](O)[C@@H]2NC)[C@@H](N/C(N)=N\[H])[C@@H]1O` [STREPTOMYCIN], with “NE: No evidence of hepatotoxicity in any species”.
For the compound `CC1(c2ccccc2)Cc2cc(OCC(=O)O)c(Cl)c(Cl)c2C1=O` (stereo not drawn) [INDACRINONE], the Hepatotoxicity result is “HH: Evidence of human hepatotoxicity”.
Then `C=CC(O)CC#N` (stereo not drawn), with “NE: No evidence of hepatotoxicity in any species”.
Consider `COc1ccc(CCN2CCC(Nc3nc4ccccc4n3Cc3ccc(F)cc3)CC2)cc1` [ASTEMIZOLE], for which the Hepatotoxicity entry was “NE: No evidence of hepatotoxicity in any species”.
Then `CC(=O)[C@H]1[C@H](C#N)C[C@H]2[C@@H]3CC=C4C[C@@H](O)CC[C@]4(C)[C@H]3CC[C@@]21C` [PREGNENOLONE CARBONITRILE], with “AH: Evidence for animal hepatotoxicity but not tested in humans”; and `COc1ccc(C[C@H](N)C(=O)N[C@H]2[C@@H](O)[C@H](n3cnc4c(N(C)C)ncnc43)O[C@@H]2CO)cc1` [PUROMYCIN], with “AH: Evidence for animal hepatotoxicity but not tested in humans”; and `COc1cc2c(cc1OC)C(=O)C(CC1CCN(Cc3ccccc3)CC1)C2` (stereo not drawn) [DONEPEZIL], with “WE: Weak evidence (<10 case reports) of human hepatotoxicity”.
Then `Brc1ccccc1` [BROMOBENZENE], with “HH: Evidence of human hepatotoxicity”; and `O=C(Cc1cccs1)N[C@@H]1C(=O)N2C(C(=O)[O-])=C(C[n+]3ccccc3)CS[C@H]12` [CEPHALORIDINE], with “AH: Evidence for animal hepatotoxicity but not tested in humans”; and `CCO.C[C@H]1c2cccc(O)c2C(=O)C2=C(O)[C@]3(O)C(=O)C(C(N)=O)=C(O)[C@@H](N(C)C)[C@@H]3[C@@H](O)[C@@H]21.Cl.O`, with “HH: Evidence of human hepatotoxicity”.
For the compound `CNCCC=C1c2ccccc2CCc2ccccc21.Cl` [NORTRIPTYLINE HYDROCHLORIDE], the Hepatotoxicity entry is given as “HH: Evidence of human hepatotoxicity”.
As to `Nc1nc2ccc(OC(F)(F)F)cc2s1` [RILUZOLE], the Hepatotoxicity entry is reported as “HH: Evidence of human hepatotoxicity”.
Then `CC1=C(C(=O)O)N2C(=O)[C@@H](NC(=O)[C@H](N)C3=CCC=CC3)[C@H]2SC1` [CEPHRADINE], with “NE: No evidence of hepatotoxicity in any species”; and `CC(CCc1ccc(O)cc1)NCCc1ccc(O)c(O)c1.Cl` (stereo not drawn) [DOBUTAMINE HYDROCHLORIDE], with “NE: No evidence of hepatotoxicity in any species”; and `C#CCN(C)Cc1ccccc1` [PARGYLINE], with “NE: No evidence of hepatotoxicity in any species”.
Take `CC[C@]1(O)C[C@@H]2CN(CCc3c([nH]c4ccccc34)[C@@](C(=O)OC)(c3cc4c(cc3OC)N(C)[C@H]3[C@@](O)(C(=O)OC)[C@H](OC(C)=O)[C@]5(CC)C=CCN6CC[C@]43[C@@H]65)C2)C1.O=S(=O)(O)O` [VINBLASTINE SULFATE]: the Hepatotoxicity result was “NE: No evidence of hepatotoxicity in any species”.
